Measured values as given in the supplement of paper PMC7840683.

Test system: HepaRG
Assay: LDH release cytotoxicity, % of total lysis control; higher = more cytotoxic
Details: 48 h
Method in brief: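 Single-lot HepaRG cells on collagen I-coated 96-well plates were exposed for 48 h in duplicate, in serum-free induction medium with 0.5% DMSO, to eight-point half-log series (test chemicals top 100 µM). Total lysis wells received 0.1% Triton X, and LDH leakage into 50 µL spent medium was read as resorufin fluorescence (CytoTox-ONE, Tecan Safire). Percent cytotoxicity was normalized to on-plate vehicle and total lysis controls and averaged over the duplicates.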

O=C(Nc1ccccc1)Nc1ccnc(Cl)c1 [Forchlorfenuron]
Details	LDH release cytotoxicity [%]
0.03162 µM	-0.561
0.1 µM	-0.953
0.3162278 µM	-0.719
1 µM	-0.995
3.16228 µM	-0.25
10 µM	-0.369
31.6228 µM	6.54
100 µM	61.5

CCOc1cccc(C2(N3CCN(c4ccccc4)CC3)CCC(C)CC2)c1 (configuration not stated)
Details	LDH release cytotoxicity [%]
0.03162 µM	-1.75
0.1 µM	-2.4
0.3162278 µM	-2.68
1 µM	-2.73
3.16228 µM	-2.22
10 µM	-2.03
31.6228 µM	-1.97
100 µM	-1.12

OCCOCCO [Diethylene glycol]
Details	LDH release cytotoxicity [%]
0.03162 µM	-0.757
0.1 µM	-1.02
0.3162278 µM	-1.03
1 µM	-0.601
3.16228 µM	-1.16
10 µM	-0.563
31.6228 µM	-0.731
100 µM	0.422

CCCCCCCCCC(=O)O [Decanoic acid]
Details	LDH release cytotoxicity [%]
0.03162 µM	-1.36
0.1 µM	-2.46
0.3162278 µM	-1.69
1 µM	-1.7
3.16228 µM	-1.42
10 µM	-1.16
31.6228 µM	-0.917
100 µM	-0.408

C#CCC1=C(C)C(OC(=O)C2C(C=C(C)C)C2(C)C)CC1=O (configuration not stated) [Prallethrin]
Details	LDH release cytotoxicity [%]
0.0314647 µM	-1.54
0.0995 µM	-0.874
0.3146466 µM	-2.55
0.995 µM	-2.33
3.14647 µM	-1.9
9.95 µM	-1.44
31.4647 µM	-2.39
99.5 µM	3.9

COC(=O)CCC(=O)OC [Dimethyl succinate]
Details	LDH release cytotoxicity [%]
0.03162 µM	-1.91
0.1 µM	-0.897
0.3162278 µM	-1.76
1 µM	-2.16
3.16228 µM	-1.84
10 µM	-1.56
31.6228 µM	-1.39
100 µM	0.319

Cn1sc(Cl)cc1=O [5-Chloro-2-methyl-3(2H)-isothiazolone]
Details	LDH release cytotoxicity [%]
0.03162 µM	-0.707
0.1 µM	-1.2
0.3162278 µM	-0.511
1 µM	-1.23
3.16228 µM	-0.949
10 µM	-0.788
31.6228 µM	-1.56
100 µM	-1.76

COC(=O)c1ccccc1O [Methyl salicylate]
Details	LDH release cytotoxicity [%]
0.03162 µM	-1.8
0.1 µM	-0.746
0.3162278 µM	-0.192
1 µM	-1.39
3.16228 µM	-1.33
10 µM	-0.567
31.6228 µM	-1.23
100 µM	0.0854

CC(O)CCO (configuration not stated) [1,3-Butanediol]
Details	LDH release cytotoxicity [%]
0.03162 µM	-2.25
0.1 µM	-2.15
0.3162278 µM	-2.36
1 µM	-2.52
3.16228 µM	-2.18
10 µM	-2.33
31.6228 µM	-1.67
100 µM	-0.781

CCCCC(CC)COC(=O)CC(C(=O)OCC(CC)CCCC)S(=O)(=O)O (configuration not stated) [Docusate sodium]
Details	LDH release cytotoxicity [%]
0.03162 µM	-1.66
0.1 µM	-0.373
0.3162278 µM	-0.361
1 µM	-0.887
3.16228 µM	-0.195
10 µM	-1.39
31.6228 µM	1.52
100 µM	75.5

CC(C)(O)C(=O)Nc1ccc([N+](=O)[O-])c(C(F)(F)F)c1 [Hydroxyflutamide]
Details	LDH release cytotoxicity [%]
0.01581 µM	-1.79
0.05 µM	-0.825
0.1581139 µM	-0.846
0.5 µM	-1.16
1.5811388 µM	-0.0206
5 µM	0.0482
15.8114 µM	-1.19
50 µM	2.46

Fc1ccc(Oc2ccnc3cc(Cl)cc(Cl)c23)cc1 [Quinoxyfen]
Details	LDH release cytotoxicity [%]
0.03162 µM	-0.928
0.1 µM	-1.42
0.3162278 µM	-1.39
1 µM	-0.911
3.16228 µM	-1.44
10 µM	-0.367
31.6228 µM	-0.837
100 µM	3.32

Clc1ccccc1Cl [1,2-Dichlorobenzene]
Details	LDH release cytotoxicity [%]
0.03162 µM	-1.68
0.1 µM	-1.12
0.3162278 µM	-2
1 µM	-1.81
3.16228 µM	-1.83
10 µM	-1.2
31.6228 µM	-1.06
100 µM	-0.133

O=C(O)C(F)(F)C(F)(F)C(F)(F)C(F)(F)C(F)(F)C(F)(F)C(F)(F)C(F)(F)C(F)(F)F [Perfluorodecanoic acid]
Details	LDH release cytotoxicity [%]
0.031623 µM	2.61
0.1 µM	-0.365
0.316228 µM	-0.683
1 µM	-0.768
3.16228 µM	-7.62
10 µM	7.64
31.6228 µM	8.49
100 µM	44.4

Oc1ccc2c(c1)OCC(N1CCC(O)(c3ccc(F)cc3)CC1)C2O (configuration not stated)
Details	LDH release cytotoxicity [%]
0.01581 µM	-1
0.05 µM	0.886
0.1581139 µM	0.0464
0.5 µM	0.111
1.5811388 µM	0.298
5 µM	0.5713
15.8114 µM	1.05
50 µM	0.322

Fc1ccccc1C(F)COC1CCC(Nc2[nH]cnc3nncc2-3)CC1 (configuration not stated) [MK-968]
Details	LDH release cytotoxicity [%]
0.03162 µM	-1.09
0.1 µM	-1.55
0.3162278 µM	-2.19
1 µM	-2.2
3.16228 µM	-2.43
10 µM	-2.42
31.6228 µM	1.23
100 µM	10.8

N#CN [Cyanamide]
Details	LDH release cytotoxicity [%]
0.03162 µM	-0.717
0.1 µM	-2.37
0.3162278 µM	-1.74
1 µM	-1.73
3.16228 µM	-2.07
10 µM	-1.59
31.6228 µM	-1.21
100 µM	-0.0755

Cc1ccccc1[N+](=O)[O-] [2-Nitrotoluene]
Details	LDH release cytotoxicity [%]
0.0324133 µM	-0.207
0.1025 µM	-0.999
0.324134 µM	-0.895
1.025 µM	-1.29
3.24133 µM	-0.412
10.25 µM	0.00334
32.4133 µM	0.414
102.5 µM	1.14

CCCCC(CC)C(=O)O (configuration not stated) [2-Ethylhexanoic acid]
Details	LDH release cytotoxicity [%]
0.0327296 µM	-0.279
0.1035 µM	-1.03
0.327296 µM	-1.23
1.035 µM	-1.42
3.27296 µM	-1.45
10.35 µM	-1.29
32.729574 µM	-1.58
103.5 µM	-0.99

NS(=O)(=O)C(F)(F)C(F)(F)C(F)(F)C(F)(F)C(F)(F)C(F)(F)C(F)(F)C(F)(F)F [Perfluorooctanesulfonamide]
Details	LDH release cytotoxicity [%]
0.03162 µM	-1.99
0.1 µM	-2.06
0.3162278 µM	-2.69
1 µM	-1.57
3.16228 µM	-1.2
10 µM	-4.2
31.6228 µM	41.1
100 µM	86.8

CCOP(=S)(OCC)SCSC(C)(C)C [Terbufos]
Details	LDH release cytotoxicity [%]
0.03162 µM	-1.37
0.1 µM	-0.712
0.3162278 µM	-1.15
1 µM	-1.03
3.16228 µM	-0.647
10 µM	-0.0424
31.6228 µM	-0.0818
100 µM	1.12

CCCCN(CCCC)CCCC [Tributylamine]
Details	LDH release cytotoxicity [%]
0.03162 µM	-2.12
0.1 µM	-1.33
0.3162278 µM	-2.67
1 µM	-2.57
3.16228 µM	-2.21
10 µM	-2.383
31.6228 µM	-2.97
100 µM	3.29

CCOC(=O)c1ccccc1C(=O)OCC [Diethyl phthalate]
Details	LDH release cytotoxicity [%]
0.03162 µM	-0.196
0.1 µM	-0.436
0.3162278 µM	-0.318
1 µM	-1.12
3.16228 µM	-0.475
10 µM	-1.03
31.6228 µM	-0.196
100 µM	5.77

CCN(Cc1c(F)cccc1Cl)c1c([N+](=O)[O-])cc(C(F)(F)F)cc1[N+](=O)[O-] [Flumetralin]
Details	LDH release cytotoxicity [%]
0.03162 µM	-0.56
0.1 µM	-0.903
0.3162278 µM	-1.29
1 µM	-1.01
3.16228 µM	-0.0868
10 µM	-0.582
31.6228 µM	-0.2
100 µM	5.506

CCN(CC)c1nc(C)cc(OP(=S)(OC)OC)n1 [Pirimiphos-methyl]
Details	LDH release cytotoxicity [%]
0.03162 µM	0.287
0.1 µM	-1.19
0.3162278 µM	-1.08
1 µM	-0.906
3.16228 µM	-1.49
10 µM	-0.783
31.6228 µM	-1.01
100 µM	-1.29

COc1ccc(OC(F)(F)F)cc1CNC1CCCNC1c1ccccc1 (configuration not stated)
Details	LDH release cytotoxicity [%]
0.03162 µM	-0.49
0.1 µM	-0.83
0.3162278 µM	-1.38
1 µM	-1.02
3.16228 µM	-1.52
10 µM	-0.56
31.6228 µM	5.16
100 µM	88

CCN1CCC2(CC1)COc1cc3c(cc12)N(C(=O)c1ccc(-c2ccc(-c4nnc(C)o4)cc2C)cc1)CC3
Details	LDH release cytotoxicity [%]
0.03162 µM	-2.84
0.1 µM	-2.94
0.3162278 µM	-1.93
1 µM	-3.08
3.16228 µM	-3.21
10 µM	-2.54
31.6228 µM	-2.8
100 µM	-0.687

c1ccc2cc3c(ccc4ccccc43)cc2c1 [Benz(a)anthracene]
Details	LDH release cytotoxicity [%]
0.03162 µM	0.322
0.1 µM	-1.2
0.3162278 µM	-1.02
1 µM	-1.2
3.16228 µM	-0.916
10 µM	-0.353
31.6228 µM	-1.51
100 µM	-1.17

Oc1ccc2ccc3cccc4ccc1c2c34 [1-Hydroxypyrene]
Details	LDH release cytotoxicity [%]
0.03162 µM	-0.176
0.1 µM	-0.855
0.3162278 µM	-1.52
1 µM	-1.23
3.16228 µM	-1.18
10 µM	-0.495
31.6228 µM	-0.838
100 µM	0.111
